Reference: patent US5403940A, “Vitamin D compound, method of preparing this compound and intermediate thereof” (Duphar International Research B.V., priority 1991, dated 1995)
pIC50: −log10 of the molar value.

Target: T1, calf thymus intracellular vitamin D receptor (VDR) (Bos taurus, UniProt Q28037)
T1 construct: calf thymus intracellular vitamin D receptor (VDR); from tissue; host or cells: calf thymus
T1 sequence (Q28037 1-426): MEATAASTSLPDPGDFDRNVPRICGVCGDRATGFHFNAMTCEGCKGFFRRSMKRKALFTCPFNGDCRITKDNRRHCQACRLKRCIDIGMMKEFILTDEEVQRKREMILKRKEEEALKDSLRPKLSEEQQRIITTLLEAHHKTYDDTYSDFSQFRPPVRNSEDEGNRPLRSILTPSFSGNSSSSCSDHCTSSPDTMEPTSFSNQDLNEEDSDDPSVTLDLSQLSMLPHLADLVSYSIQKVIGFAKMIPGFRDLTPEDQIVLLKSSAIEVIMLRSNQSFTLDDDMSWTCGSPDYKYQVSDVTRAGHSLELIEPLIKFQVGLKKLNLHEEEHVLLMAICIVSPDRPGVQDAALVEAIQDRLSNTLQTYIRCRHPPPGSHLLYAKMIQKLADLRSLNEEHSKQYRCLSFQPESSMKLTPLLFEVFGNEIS
Assay: Affinity towards the calf thymus intracellular vitamin D receptor, replacement of 3H-calcitriol
Type: binding
From the text: In this assay ^3 H-calcitriol (1α,25-dihydroxycholecalciferol), which is specifically bound to the VDR, is replaced by the tested compound.

In the case of `C=C1/C(=C\C=C2/CCC[C@]3(CO)[C@@H]([C@H](C)CCCC(C)(C)O)CC[C@@H]23)C[C@@H](O)C[C@@H]1O` [compound 46], the pIC50 (compound dissolved in ethanol, 10^-13 to 10^-7 M, 3H-calcitriol bound to VDR, read-out: IC50 value, i.e. 50% replacement of 3H-calcitriol) was 9.60 and the “affinity to the VDR” value (conclusion drawn from the IC50) was “high affinity to the VDR”.
